From patent US12371419B2, “Aminopyrimidine/pyrazine derivatives as CTPS1 inhibitors” (Step Pharma S.A.S., priority 2018, dated 2025)

Tested on: Human CTPS1 versus CTPS2
Experiment: RapidFire/MS-based enzyme selectivity assay, human CTPS1 versus CTPS2
Type: biochemical
Conditions: calculated from RF/MS IC50 values for human CTPS1 and CTPS2
Description: Human CTPS1 versus CTPS2 Selectivity Assessment by RapidFire/MS Analysis.
The enzyme inhibitory activities against each target isoform of interest may be determined for the compounds of the invention using an optimised RapidFire high-throughput mass spectrometry (RF/MS) assay format. RF/MS assays for both human CTPS1 and CTPS2 may be performed in assay buffer consisting of 50 mM HEPES (Merck), 20 mM MgCl2, 5 mM KCl, 1 mM DTT, 0.01% Tween-20, pH to 8.0 accordingly. Human full-length active C-terminal FLAG-His-tag CTPS1 (UniProtKB-P17812, CTPS[1-591]-[…]) may be obtained from Proteros biostructures GmbH. Human full length active C-terminal FLAG-His-Avi tagged CTPS2 (UniProtKB-Q9NRF8, CTPS2 [1-586]-[…]) may be obtained from Harker Bio.
Human CTPS (1 or 2) protein may be prepared in 1× assay buffer to the final working protein concentration required for the reaction. A 2 uL volume per well of 2×CTPS (1 or 2) protein may be mixed with 40 nL of compound using acoustic (ECHO) delivery and incubated for 10 minutes at 25° C. Each isoform enzymatic reaction may be subsequently initiated by addition of 2 uL per well of a 2× substrate mix in assay buffer. For hCTPS1: ATP (0.3 mM), UTP (0.2 mM), GTP (0.07 mM) and L-glutamine (0.1 mM). For hCTPS2: ATP (0.1 mM), UTP (0.04 mM), GTP (0.03 mM) and L-glutamine (0.1 mM). Each mixture may be incubated for an appropriate amount of time per isoform within the determined linear phase of the reaction at 25° C. A 60 uL volume of stop solution (1% formic acid with 0.5 uM ^13C9-^15N3-CTP in H20) may be added and the plate immediately heat-sealed and centrifuged for 10 minutes at 4,000 rpm. Following centrifugation, plates may be loaded onto the Agilent RapidFire microfluidic solid phase extraction system coupled to an API4000 triple quadrupole mass spectrometer (RF/MS) for analysis.
In all cases, the enzyme converts UTP to CTP. Highly specific and sensitive multiple reaction monitoring (MRM) MS methods may be optimised for the detection of the enzymatic reaction product, CTP, and the stable isotope labelled product standard ^13C9-^15N3-CTP. Readout for data analysis may be calculated as the ratio between the peak area of the product CTP and the internal standard ^13C9-^15N3-CTP. For data reporting, the following equation may be used: […]
For each screening plate, the means of the negative (DMSO) and positive control values were used for the calculation of the respective assay window (S/B) and Z′ values. The median of the respective control values was used for calculation of percent inhibition according to the following equation: […]
Percentage inhibition was then plotted against compound concentration, and the 50% inhibitory concentration (IC50) was determined from the resultant concentration-response curve.
Fold selectivity between CTPS1 and CTPS2 was subsequently calculated according to the following equation: […]

| Structure (SMILES) | Selectivity (fold selectivity between CTPS1 and CTPS2) |
| --- | --- |
| CCOc1cncc(-c2ccc(NC(=O)C3(c4ccnc(NS(=O)(=O)C5CC5)n4)CCOCC3)c(F)c2)n1 [P143, 4-(2-(cyclopropanesulfonamido)pyrimidin-4-yl)-N-(4-(6-ethoxypyrazin-2-yl)2-fluorophenyl)tetrahydro-2H-pyran-4-carboxamide] | +++ (>60 fold (+++)) |
| CCOc1cncc(-c2ccc(NC(=O)C3(c4ccnc(NS(=O)(=O)C5CC5)n4)CCCC3)nc2)n1 [P136, 1-(2-(cyclopropanesulfonamido)pyrimidin-4-yl)-N-(5-(6-ethoxypyrazin-2-yl)pyridin-2-yl)cyclopentane-1-carboxamide] | +++ (>60 fold (+++)) |
| CCOc1cncc(-c2ccc(NC(=O)C(CCOC)c3ccnc(NS(=O)(=O)C4CC4)n3)nc2)n1 (stereo not drawn) [P145, 2-(2-(cyclopropanesulfonamido)pyrimidin-4-yl)-N-(5-(6-ethoxypyrazin-2-yl)pyridin-2-yl)-4-methoxybutanamide] | +++ (>60 fold (+++)) |
| CCOc1cncc(-c2ccc(NC(=O)C3(c4ccnc(NS(=O)(=O)C5CC5)n4)CCOCC3)nc2)n1 [P115, 4-(2-(Cyclopropanesulfonamido)pyrimidin-4-yl)-N-(5-(6-ethoxypyrazin-2-yl)pyridin-2-yl)tetrahydro-2H-pyran-4-carboxamide] | +++ (>60 fold (+++)) |
| CCOc1cncc(-c2ccc(NC(=O)C3(c4cncc(NS(=O)(=O)C5CC5)n4)CCOCC3)nc2)n1 [P197] | +++ (>60 fold (+++)) |
| CCOc1cncc(-c2ccc(NC(=O)C(F)(CC)c3ccnc(NS(=O)(=O)C4CC4)n3)nc2)n1 (single isomer, unassigned) [P114, 2-(2-(Cyclopropanesulfonamido)pyrimidin-4-yl)-N-(5-(6-ethoxypyrazin-2-yl)pyridin-2-yl)-2-fluorobutanamide] | +++ (>60 fold (+++)) |

Results, then the compound that gave them:

| Selectivity (fold selectivity between CTPS1 and CTPS2) | Structure (SMILES) |
| --- | --- |
| + (2-30 fold (+)) | CCOc1cncc(-c2ccc(NC(=O)C(F)(CC)c3cncc(NS(=O)(=O)C4CC4)n3)nc2)n1 (single isomer, unassigned) [P207, 2-(6-(cyclopropanesulfonamido)pyrazin-2-yl)-N-(5-(6-ethoxypyrazin-2-yl)pyridin-2-yl)-2-fluorobutanamide] |
| +++ (>60 fold (+++)) | CCOc1cncc(-c2ccc(NC(=O)C(F)(CC)c3cncc(NS(=O)(=O)C4CC4)n3)nc2)n1 (single isomer, unassigned) [P206, 2-(6-(cyclopropanesulfonamido)pyrazin-2-yl)-N-(5-(6-ethoxypyrazin-2-yl)pyridin-2-yl)-2-fluorobutanamide] |
| + (2-30 fold (+)) | CCOc1cncc(-c2ccc(NC(=O)C(F)(CC)c3ccnc(NS(=O)(=O)C4CC4)n3)nc2)n1 (single isomer, unassigned) [P113, 2-(2-(Cyclopropanesulfonamido)pyrimidin-4-yl)-N-(5-(6-ethoxypyrazin-2-yl)pyridin-2-yl)-2-fluorobutanamide] |
